Experimental data taken from ChEMBL document CHEMBL1145472, “Genetic basis of resistance to fusidic acid in staphylococci” (2007).

Columns and labels:
Type in all cases: functional
[1] = system: Staphylococcus aureus; experiment: Antimicrobial activity against Staphylococcus aureus
[2] = system: Staphylococcus aureus; experiment: Antimicrobial activity against Staphylococcus aureus CS979
[3] = system: Staphylococcus lugdunensis; experiment: Antimicrobial activity against Staphylococcus lugdunensis 40869
[4] = system: Staphylococcus aureus; experiment: Antimicrobial activity against Staphylococcus aureus CS730
[5] = system: Staphylococcus aureus; experiment: Antimicrobial activity against Staphylococcus aureus CS957
[6] = system: Staphylococcus aureus; experiment: Antimicrobial activity against Staphylococcus aureus CS866
[7] = system: Staphylococcus aureus; experiment: Antimicrobial activity against Staphylococcus aureus CS992
[8] = system: Staphylococcus aureus; experiment: Antimicrobial activity against Staphylococcus aureus RN4220 expressing (pAJ96:SAS0043) (fusC) gene
[9] = system: Staphylococcus aureus; experiment: Antimicrobial activity against Staphylococcus aureus CS1076
[10] = system: Staphylococcus intermedius; experiment: Antimicrobial activity against Staphylococcus intermedius CL1
[11] = system: Staphylococcus aureus; experiment: Antimicrobial activity against methicillin-susceptible Staphylococcus aureus 476
[12] = system: Staphylococcus aureus; experiment: Antimicrobial activity against Staphylococcus aureus RN4220 expressing (pCU1:SAS0043) (fusC) gene
[13] = system: Staphylococcus aureus; experiment: Antimicrobial activity against Staphylococcus aureus RN4220 expressing pCU1:fusB gene
[14] = system: Staphylococcus aureus; experiment: Antimicrobial activity against Staphylococcus aureus CS860
[15] = system: Staphylococcus intermedius; experiment: Antimicrobial activity against Staphylococcus intermedius NCTC 11048
[16] = system: Staphylococcus intermedius; experiment: Antimicrobial activity against Staphylococcus intermedius CL2
[17] = system: Staphylococcus aureus; experiment: Antimicrobial activity against Staphylococcus aureus RN4220 expressing (pCU1:SSP2165) (fusD) gene
[18] = system: Staphylococcus aureus; experiment: Antimicrobial activity against Staphylococcus aureus CS851
[19] = system: Staphylococcus lugdunensis; experiment: Antimicrobial activity against Staphylococcus lugdunensis 16496
[20] = system: Staphylococcus aureus; experiment: Antimicrobial activity against Staphylococcus aureus CS808
[21] = system: Staphylococcus aureus; experiment: Antimicrobial activity against Staphylococcus aureus RN4220 expressing pCU1 gene
[22] = system: Staphylococcus aureus; experiment: Antimicrobial activity against Staphylococcus aureus CS805
[23] = system: Staphylococcus saprophyticus; experiment: Antimicrobial activity against Staphylococcus saprophyticus ATCC 15305
[24] = system: Staphylococcus aureus; experiment: Antimicrobial activity against Staphylococcus aureus RN4220 expressing pAJ96:fusB
[25] = system: Staphylococcus aureus; experiment: Antimicrobial activity against Staphylococcus aureus CS1083
[26] = system: Staphylococcus lugdunensis; experiment: Antimicrobial activity against Staphylococcus lugdunensis 31440
[27] = system: Staphylococcus aureus; experiment: Antimicrobial activity against Staphylococcus aureus RN4220 expressing (pAJ96:SSP2165) (fusD) gene
[28] = system: Staphylococcus aureus; experiment: Antimicrobial activity against Staphylococcus aureus 649 expressing pUB101
[29] = system: Staphylococcus aureus; experiment: Antimicrobial activity against Staphylococcus aureus CS602
[30] = system: Staphylococcus aureus; experiment: Antimicrobial activity against Staphylococcus aureus RN4220
[31] = system: Staphylococcus lugdunensis; experiment: Antimicrobial activity against Staphylococcus lugdunensis 16641
[32] = system: Staphylococcus aureus; experiment: Antimicrobial activity against Staphylococcus aureus CS1128
[33] = system: Staphylococcus aureus; experiment: Antimicrobial activity against Staphylococcus aureus RN4220 expressing pAJ96

Measured: MIC

CC(=O)O[C@H]1C[C@@]2(C)[C@@H](C[C@@H](O)[C@H]3[C@@]4(C)CC[C@@H](O)[C@@H](C)[C@@H]4CC[C@@]32C)/C1=C(\CCC=C(C)C)C(=O)O [FUSIDIC ACID]
2 µg/mL: [7] | [17] | [23]
3 µg/mL: [4] | [5] | [6] | [20]
0.125 µg/mL: [21] | [30] | [33]
8 µg/mL: [9] | [11] | [14] | [22]
4 µg/mL: [1] | [2] | [10] | [16] | [18] | [19] | [25] | [26] | [27] | [29] | [31] | [32]
32 µg/mL: [24]
0.064 µg/mL: [3] | [15]
16 µg/mL: [8] | [12] | [13] | [28]
